The values that follow come from patent publication US6645983B1, “Pharmaceutical compositions comprising 4-quinolones for treating cancers” (Laboratoire L. Lafon, priority 1999, dated 2003).

The structures appear in SMILES notation.

The subject of one data set is J82. Kind of data set: MTT test, cytotoxic activity on non-clonogenic cell lines. In kind it is cell-based. Conditions: Homo sapiens, 10^−5 M, 72 hours of incubation, control condition = 100%, mean value, read-out: mean optical density as percentage of control, J82. In outline:
(§1)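 Human bladder cancer lines were seeded at 20 000–50 000 cells/ml and, after 24 h, exposed to compounds at 10^−5 to 10^−10 M against a solvent control. Formazan was dissolved in DMSO and viability was read by spectrophotometric optical density.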
(Tetrazolium assays rely on reduction of a dye to a coloured formazan, in cell work by metabolically active cells.)

In a further data set the test system is T24. The description is as above. The class given is cell-based. Conditions: Homo sapiens, T-24; 10^−5 M, 72 hours of incubation, control condition = 100%, mean value; read-out: mean optical density as percentage of control, T24. In outline:
as §1

The next data set has as its system SW1088. Described as above. The class given is cell-based. Conditions: Homo sapiens, 10^−5 M, 72 hours of incubation, control condition = 100%, mean value, read-out: mean optical density as percentage of control, SW1088. In outline: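 Human astrocytoma SW1088 cells seeded, grown 24 h at 37° C, 5% CO2, then exposed to compounds at 10^−5 to 10^−10 M versus solvent control. Viability by MTT reduction: 3 h MTT incubation, formazan dissolved in DMSO and read by spectrophotometry.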

For a further data set, the system named is LoVo. The description is as above. The class given is cell-based. Conditions: Homo sapiens, 10^−5 M, 72 hours of incubation, control condition = 100%, mean value, read-out: mean optical density as percentage of control, LoVo. In outline: (§2)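 Compounds span 10^−5 to 10^−10 M, with solvent-treated wells as control, and the formazan is quantified by absorbance after DMSO solubilization.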

The subject of the next data set is MCF7. The description is as above. The class given is cell-based. Conditions: Homo sapiens, 10^−5 M, 72 hours of incubation, control condition = 100%, mean value, read-out: mean optical density as percentage of control, MCF7. In outline: as §2
The test system of the next data set is U-373MG. Described as above. Conditions: Homo sapiens, U373 MG; 10^−5 M, 72 hours of incubation, control condition = 100%, mean value; read-out: mean optical density as percentage of control, U-373MG. The class given is cell-based. In a few lines:
as §2

Another data set has as its system A-427. The description is as above. Conditions: Homo sapiens, 10^−5 M, 72 hours of incubation, control condition = 100%, mean value, read-out: mean optical density as percentage of control, A-427. The class given is cell-based. In a few lines: as §2
For a further data set, the system named is T-47D. The description is as above. The following applies: Homo sapiens, T47D; 10^−5 M, 72 hours of incubation, control condition = 100%, mean value; read-out: mean optical density as percentage of control, T-47D. The class given is cell-based. In outline:
as §2

The test system of a further data set is A549. The data set is described as above. The class given is cell-based. The following applies: Homo sapiens, 10^−5 M, 72 hours of incubation, control condition = 100%, mean value, read-out: mean optical density as percentage of control, A549. In outline:
as §2

The subject of another data set is U-87MG. Described as above. The class given is cell-based. Conditions: Homo sapiens, U-87 MG; 10^−5 M, 72 hours of incubation, control condition = 100%, mean value; read-out: mean optical density as percentage of control, U-87MG. In a few lines:
as §2

The test system of a further data set is PC-3. The description is as above. In kind it is cell-based. The following applies: Homo sapiens, 10^−5 M, 72 hours of incubation, control condition = 100%, mean value, read-out: mean optical density as percentage of control, PC-3. In a few lines:
as §2

The next data set concerns HCT-15. The data set is described as above. In kind it is cell-based. Conditions: Homo sapiens, 10^−5 M, 72 hours of incubation, control condition = 100%, mean value, read-out: mean optical density as percentage of control, HCT-16. In outline: as §2

Consider `COc1ccc(-c2cn(CCCC#N)c3c(OC)ccc(OC)c3c2=O)cc1` [CRL8421, 4-[5,8-Dimethoxy-3-(4-methoxyphenyl)-4-oxo-1,4-dihydro-1-quinolinyl]butanenitrile], for which the melting point (usually the temperature, or range, at which the solid turns liquid) lay within 126 to 127 °C. Further, in the data set on J82, the viability at 10 µM was determined as 47.1%. Also, the viability at 10 µM in the data set on T24 stood at 40.3%. Further, the viability at 10 µM with SW1088 was 51%. Further, the viability at 10 µM in the data set on LoVo amounted to 60.8%. In addition, the viability at 10 µM in the data set on MCF7 was 49.5%. For the same compound, the viability at 10 µM in the data set on U-373MG is 81.7%. In addition, the viability at 10 µM in the data set with A-427 turned out to be 33%. The viability at 10 µM in the data set on T-47D stood at 83.5%. Also, in the data set on A549, the viability at 10 µM worked out at 97.5%. Besides, in the data set with U-87MG, the viability at 10 µM came out at 29.9%. Besides, the viability at 10 µM with PC-3 came out at 61.4%. In addition, the viability at 10 µM with HCT-15 turned out to be 50%.

The compound `COc1ccc2[nH]cc(-c3ccccc3)c(=O)c2c1` [CRL8488, 6-Methoxy-3-phenyl-1,4-dihydro-4-quinolinone] showed a melting point of 355 to 356 °C.

On to `COc1cc(OC)c2c(=O)c(-c3ccccc3)cn(C)c2c1` [CRL8489, 5,7-Dimethoxy-3-phenyl-1-methyl-1,4-dihydro-4-quinolinone], for which the melting point was in the range of 179 to 180 °C.

With `COc1ccc(-c2c[nH]c3ccc(OC)cc3c2=O)cc1` [CRL8490, 6-Methoxy-3-(4-methoxyphenyl)-1,4-dihydro-4-quinolinone], the melting point is 335 to 336 °C.

`COc1ccc(-c2c[nH]c3cccc(OC)c3c2=O)cc1` [CRL8491, 5-Methoxy-3-(4-methoxyphenyl)-1,4-dihydro-4-quinolinone] showed a melting point of 215 to 216 °C.

With `COc1ccc(-c2c[nH]c3cc(OC)cc(O)c3c2=O)cc1` [CRL8492, 5-Hydroxy-7-methoxy-3-(4-methoxyphenyl)-1,4-dihydro-4-quinolinone], the melting point was 236 to 237 °C.

As for `COc1ccc(-c2cn(C)c3cc(OC)cc(OS(=O)(=O)C(F)(F)F)c3c2=O)cc1` [CRL8493, 7-Methoxy-3-(4-methoxyphenyl)-1-methyl-5-trifluoromethanesulfonate-1,4-dihydro-4-quinolinone], the melting point was in the range of 184 to 185 °C.

`C=Cc1cc(OC)cc2c1c(=O)c(-c1ccc(OC)cc1)cn2C` [CRL8494, 7-Methoxy-3-(4-methoxyphenyl)-1-methyl-5-vinyl-1,4-dihydro-4-quinolinone] yielded a melting point of 130 to 131 °C.

In the case of `C=CCOc1c(-c2ccc(OC)cc2)cnc2cc(OC)cc(OC)c12` [CRL8496, 4-(Allyloxy)-5,7-dimethoxy-3-(4-methoxyphenyl)-quinoline], the melting point was in the range of 169 to 170 °C.

In turn, `COc1ccc(-c2cnc3cc(OC)cc(OC)c3c2OCCC2OCCO2)cc1` [CRL8500, 4-[2-(1,3-Dioxolan-2-yl)ethoxy]-5,7-dimethoxy-3-(4-methoxyphenyl)quinoline] gave a melting point of 141 to 142 °C.

The compound `COc1ccc(-c2cnc3c(OC)ccc(OC)c3c2OCCCC#N)cc1` [CRL8501, {[5,8-Dimethoxy-3-(4-methoxyphenyl)-4-quinolyl]oxy}butanenitrile] showed a melting point of 117 to 118 °C.

Compound `CCOC(=O)COc1c(-c2ccc(OC)cc2)cnc2cc(OC)cc(OC)c12` [CRL8502, Ethyl 2-{[5,7-dimethoxy-3-(4-methoxyphenyl)-4-quinolinyl]oxy}acetate] registered a melting point of 238 to 239 °C.

`COc1ccc(-c2cn(C)c3c(OC)ccc(OS(=O)(=O)C(F)(F)F)c3c2=O)cc1` [CRL8511, 8-Methoxy-3-(4-methoxyphenyl)-1-methyl-5-trifluoro-methanesulfonate-1,4-dihydro-4-quinolinone] registered a melting point of 179 to 180 °C.

In turn, `C=Cc1ccc(OC)c2c1c(=O)c(-c1ccc(OC)cc1)cn2C` [CRL8512, 8-Methoxy-3-(4-methoxyphenyl)-1-methyl-5-vinyl-1,4-dihydro-4-quinolinone] gave a melting point of 104 to 105 °C.

In the case of `CC(=O)Oc1ccc(-c2cn(C)c3cc(OC(C)=O)cc(OC(C)=O)c3c2=O)cc1` [CRL8513, 5,7-Diacetoxy-3-[4-(acetoxy)phenyl]-1-methyl-1,4-dihydro-4-quinolmone], the melting point is 219 to 220 °C.

`COc1ccc(-c2cn(CCO)c3c(OC)ccc(OC)c3c2=O)cc1` [CRL8515, 1-(2-Hydroxyethyl)-5,8-dimethoxy-3-(4-methoxyphenyl)-1,4-dihydro-4-quinolinone] returned a melting point of 126 to 127 °C.

As for `COc1ccc(-c2cnc3c(OC)ccc(OC)c3c2OCCO)cc1` [CRL8516, 2-{[5,8-Dimethoxy-3-(4-methoxyphenyl)-4-quinolyl]oxy}-1-ethanol], the melting point lay within 124 to 125 °C.

`COc1ccc(-c2cn(CCOS(=O)(=O)c3ccc(C)cc3)c3c(OC)ccc(OC)c3c2=O)cc1` [CRL8517, 4-2-[5,8-Dimethoxy-3-(4-methoxyphenyl)-4-oxo-1,4-dihydro-1-quinolyl]ethyl p-Toluenesulfonate]: the melting point lay within 85 to 86 °C.

`COc1ccc(-c2cn(CCC#N)c3c(OC)ccc(OC)c3c2=O)cc1` [CRL8518, 3-[5,8-Dimethoxy-3-(4-methoxyphenyl)-4-oxo-1,4-dihydro-1-quinolinyl]propanenitrile]: the melting point lay within 79 to 80 °C.

For the compound `COc1ccc(-c2cnc3c(OC)ccc(OC)c3c2OCCCCC#N)cc1` [CRL8519, {[5,8-Dimethoxy-3-(4-methoxyphenyl)-4-quinolyl]oxy}pentanenitrile], the melting point was 126 to 127 °C.

Take `C=CCNc1cc(OC)cc2c1c(=O)c(-c1ccc(OC)cc1)cn2C` [CRL8520, 5-Allylamino-7-methoxy-3-(4-methoxyphenyl)-1-methyl-1,4-dihydro-4-quinolinone]: the melting point lay within 154 to 155 °C.

Regarding `COc1ccc(CNc2cc(OC)cc3c2c(=O)c(-c2ccc(OC)cc2)cn3C)cc1` [CRL8521, 5-(4-Methoxybenzylamino)-7-methoxy-3-(4-methoxyphenyl)-1-methyl-1,4-dihydro-4-quinolinone], the melting point lay in the range of 144 to 145 °C.

`COc1ccc(-c2cn(CC#N)c3cc(OC)ccc3c2=O)cc1` [CRL8522, [7-Methoxy-3-(4-methoxyphenyl)-4-oxo-1,4-dihydro-1-quinolinyl]acetonitrile] displayed a melting point of 206 to 207 °C.

As to `CCN(CC)C(=O)CCn1cc(-c2ccc(OC)cc2)c(=O)c2ccc(OC)cc21` [CRL8525, N,N-Diethyl-3-[7-methoxy-3-(4-methoxyphenyl)-4-oxo-1,4-dihydro-1-quinolinyl]propanamide], the melting point is 158 to 159 °C.
